{"source": "patent US12692232B2", "about": "“Indole carboxamide compound, preparation therefor and use thereof” (NANJING RUISHUNING MEDICAL TECHNOLOGY CO., LTD., priority 2021, dated 2026)", "system": "lipopolysaccharide (LPS)-induced mouse model of sepsis", "test": "LPS-induced mouse model of sepsis, cardiopulmonary injury", "assay_type": "in vivo", "conditions": "4 hours after LPS 40 mg/kg; for LVFS: model 15.2 ± 2.8; for LVEF: model 34.3 ± 2.9; for lung coefficient: LPS model 7.24%±0.21%", "method": "A lipopolysaccharide (LPS)-induced mouse model of sepsis was used to determine the preventive and therapeutic effect of the compounds of the present invention (as exemplified by compound 1-1 obtained in Example 1) on cardiopulmonary injury caused by sepsis. The method was as follows:\nGrouping of animals: 50 male C57BL/6J mice aged 6-8 weeks. The mice were randomly divided into 5 groups of 10 mice each, namely, i) a solvent control group: each animal was administered 0.9% saline; ii) a sepsis model group (LPS group): each animal was injected intraperitoneally with LPS at a dose of 40 mg/kg; iii) a treatment group of medium-dose compound 1-1 of Example (LPS+25 mg/kg of compound 1-1 obtained in Example 1): each animal was administered compound 1-1 by gavage at a dose of 25 mg/kg, followed by intraperitoneal injection of LPS at a dose of 40 mg/kg 30 minutes later; iv) a treatment group of high-dose compound 1-1 of Example 1 (LPS+50 mg/kg of compound 1-1 group obtained in Example 1): each animal was administered compound 1-1 by gavage at a dose of 50 mg/kg, followed by intraperitoneal injection of LPS at a dose of 40 mg/kg 30 minutes later; v) a treatment group of medium-dose indole analogue 3-[(1-methyl-1H-indole-2-carbonyl)amino]propionic acid disclosed in CN2019107285315 (LPS+25 mg/kg of indole analogue 3-[(1-methyl-1H-indole-2-carbonyl)amino]propionic acid disclosed in CN2019107285315): each animal was administered the indole analogue by gavage at a dose of 25 mg/kg, followed by intraperitoneal injection of LPS at a dose of 40 mg/kg 30 minutes later. 4 hours after LPS stimulation, follow-up examinations were performed in each group.\nAssessment of cardiac function in mice: 4 animals from each group were used for this assay. Isoflurane was used to maintain proper anesthesia and spontaneous breathing in the mice. The mice were placed in the supine position on a constant temperature pad at 37° C., and the extremities of the mice were connected to four electrodes with conductive paste and fixed on the ultrasonic operating table. The probe was coated with ultrasound coupling agent, and placed in the lower middle part of the left sternum of the mice, and the short-axis M-mode echocardiographic images of the left ventricle adjacent to the sternum were acquired in real time. The dynamic images of 10 consecutive cardiac cycles were acquired using M-mode echocardiography, and the images were stored and analyzed offline. Left ventricular ejection fraction (LVEF) and left ventricular fraction shortening (LVFS) were calculated from left ventricular end diastolic diameter (LVEDD) and left ventricular end systolic diameter (LVESD), respectively, using the formulae: LVEF=(LVEDD^3−LVESD^3)/LVEDD^3×100% and LVFS=(LVEDD−LVESD)/LVEDD×100%.\nDetermination of lung coefficient: after weighting, the mice were anesthetized with pentobarbital sodium injection, and the whole lung was removed from the thorax, and the tissue around the lung was removed. Surface moisture and blood stains were wiped dry with filter paper, and the wet weight of the lung was weighed. Lung coefficient=lung wet weight […]/mouse body weight (g)×100%.\nHistopathological observations: after the mice were anaesthetized with pentobarbital sodium injection, the lungs and ventricles were removed by thoracotomy and fixed in 10% neutral formaldehyde (pH=7.4) for 2 days. Routine paraffin embedding, serial sectioning, H&E staining, neutral balsam sealing and microscopic observation were performed.", "data": [{"smiles": "Cn1c(C(=O)NCCC(=O)O)cc2ccccc21", "note": "[3-[(1-methyl-1H-indole-2-carbonyl)amino]propionic acid, reference compound]", "values": [{"measurement": "LVFS", "setting": "medium-dose 25 mg/kg gavage", "result": "22.9±4.0", "unit": "%"}, {"measurement": "LVEF", "setting": "medium-dose 25 mg/kg gavage", "result": "53.2±3.8", "unit": "%"}, {"measurement": "lung coefficient", "setting": "medium-dose 25 mg/kg", "result": "5.48%±0.15%"}]}, {"smiles": "CC(=O)OCCCNC(=O)c1c(C=O)c2ccccc2n1C", "note": "[compound 1-1, propyl 3-[(3-formyl-1-methyl-1H-indole-2-carbonyl)amino]acetate]", "values": [{"measurement": "LVFS", "setting": "high-dose 50 mg/kg gavage", "result": "30.7±2.2", "unit": "%"}, {"measurement": "LVEF", "setting": "high-dose 50 mg/kg gavage", "result": "63.8±3.9", "unit": "%"}, {"measurement": "lung coefficient", "setting": "high-dose 50 mg/kg", "result": "4.93%±0.12%"}, {"measurement": "LVFS", "setting": "medium-dose 25 mg/kg gavage", "result": "24.5±2.6", "unit": "%"}, {"measurement": "LVEF", "setting": "medium-dose 25 mg/kg gavage", "result": "58.7±4.3", "unit": "%"}, {"measurement": "lung coefficient", "setting": "medium-dose 25 mg/kg", "result": "5.16%±0.19%"}]}]}
